# Source: US8734853B2, “HDL particles for delivery of nucleic acids” (University of North Texas Health Science Center at Fort …, priority 2008, dated 2014)
# Experiments:
# HeyA8 = experiment: Orthotopic mouse model of ovarian carcinoma (HeyA8); format: in vivo, female athymic nude mice
# Protocol: Orthotopic mouse model. The 10- to 12-week-old female athymic nude mice were obtained from the US National Cancer Institute. All experiments were approved by the Institutional Animal Care and Use Committee of the M.D. Anderson Cancer Center. […] Tumor cells for appropriate ovarian cancer mouse models (HeyA8, 2.5×105; SKOV3ip1 and […], 1.0×106) were injected intraperitoneally into mice on day 0. Mice randomized into appropriate groups on day 7 when tumors had been established and were palpable. After 3-5 weeks of treatment (depending on the model), mice were necropsied and tumors were harvested. Small interfering RNA (siRNA). Specific siRNAs targeted against Stat3-7 (target sequence [NT] ID NO:1), FAK (target Sequence [NT] ID NO:2) and control siRNA targeted against (target sequence:[NT] ID NO:3) were purchased from Sigma-Aldrich Corporation, (Woodland, Tex.). These were incorporated into r-HDL nanoparticles, as previously described (Mooberry et al., 2009). 5 ug of r-HDL incorporated siRNA was injected intraperitoneally twice weekly. For in vitro studies, mRNA-specific or nonspecific (control) siRNA was incorporated into Qiagen RNAiFect transfection agent (1 ug of siRNA to 3 uL of RNAiFect). […] Cells were first transfected with STAT3 siRNA. Twenty-four hours after transfection, media was changed to standard siRNA-free media and cells were treated with docetaxel (see below for details). Reagents. Docetaxel was purchased from Sanofi-Aventis (Bridgewater, N.J.). […] These cells were treated with docetaxel after STAT3 gene was silenced using siRNA (as described above) for 48 hours. In In vivo experiments, appropriate groups received treatment with docetaxel starting on day 7, once a week, intraperitoneally at: 50 ug/mouse (HeyA8 and HeyA8-MDR) and 30 ug/mouse (SKOV3). […] Statistics. Continuous variables were compared with the use of the Student t test (between 2 groups) or analysis of variance (for all groups) if normally distributed, and with the use of the Mann-Whitney rank sum test or Kruskal Wallis test (for all groups) if nonparametric. […]
# SKOV3ip1 [1] = experiment: Orthotopic ovarian cancer mouse model (SKOV3ip1); format: in vivo, female athymic nude mice; details: compared to control group
# Protocol: (§1) Orthotopic mouse model. The 10- to 12-week-old female athymic nude mice were obtained from the US National Cancer Institute. All experiments were approved by the Institutional Animal Care and Use Committee of the M.D. Anderson Cancer Center. […] Tumor cells for appropriate ovarian cancer mouse models (HeyA8, 2.5×105; SKOV3ip1 and […], 1.0×106) were injected intraperitoneally into mice on day 0. Mice randomized into appropriate groups on day 7 when tumors had been established and were palpable. After 3-5 weeks of treatment (depending on the model), mice were necropsied and tumors were harvested. Small interfering RNA (siRNA). Specific siRNAs targeted against Stat3-7 (target sequence [NT] ID NO:1), FAK (target Sequence [NT] ID NO:2) and control siRNA targeted against (target sequence:[NT] ID NO:3) were purchased from Sigma-Aldrich Corporation, (Woodland, Tex.). These were incorporated into r-HDL nanoparticles, as previously described (Mooberry et al., 2009). 5 ug of r-HDL incorporated siRNA was injected intraperitoneally twice weekly. For in vitro studies, mRNA-specific or nonspecific (control) siRNA was incorporated into Qiagen RNAiFect transfection agent (1 ug of siRNA to 3 uL of RNAiFect). […] Cells were first transfected with STAT3 siRNA. Twenty-four hours after transfection, media was changed to standard siRNA-free media and cells were treated with docetaxel (see below for details). […]
# HeyA8MDR = experiment: Multi-drug resistant model of ovarian carcinoma (HeyA8MDR); format: in vivo, female athymic nude mice; details: compared to control siRNA/rHDL
# Protocol: as §1
# SKOV3ip1 [2] = experiment: Ki-67 staining (cell proliferation index) of tumors from SKOV3ip1 model; format: in vivo, female athymic nude mice; details: compared with control group
# From the text: Effect of STAT3 targeting on tumor microenvironment. […] The combination of STAT3 siRNA/rHDL and docetaxel reduced tumor cell proliferation by 48% (P<0.01) compared with control group (FIG. 7).
# SKOV3ip1 [3] = experiment: TUNEL staining of tumor tissues from the SKOV3ip1 model; format: in vivo, female athymic nude mice; details: SKOV3ip1 model tumors, compared to control group
# Protocol: TUNEL Staining. Assessment of apoptosis, frozen sections stained by terminal deoxynucleotidyl transferase-mediated deoxyuridine triphosphate nick-end labeling (TUNEL; green; Promega, Madison, Wis.), was performed as described previously (Shahzad et al., 2009). The samples were counterstained with Hoechst 1:10,000 (Thaker et al., 2005). An apoptotic body was represented by green fluorescence. To quantify apoptotic cells, the number of TUNEL positive cells was calculated in 10 random fields at the original magnification 200× from five separate slides (per group) and averaged.
# STAT3 is known to increase cell survival and inhibit apoptosis (Shen et al., 2001; Catlett-Falcone et al., 1999; Zushi et al., 1998; Masude et al., 2002). To assess whether STAT3 knockdown would enhance the efficacy of docetaxel treatment by enhancing its ability to produce apoptosis., fluorescents labeled TUNEL staining was performed on fresh frozen tumor tissues from the SKOV3ip1 ovarian cancer treatment model.
# [4] = test system: SKOV3ip1 ovarian cancer cells; experiment: Annexin-V PE/7AAD flow cytometry apoptosis assay; format: cell-based; details: docetaxel 4 nM, 48 hours after docetaxel treatment
# Protocol: All in vitro experiments were conducted using 4.0 nM concentration of docetaxel in SKOV3ip1 ovarian cancer cells. These cells were treated with docetaxel after STAT3 gene was silenced using siRNA (as described above) for 48 hours.
# Additionally, to determine the effects of in vitro STAT3 targeting on apoptosis, STAT3 gene was silenced in SKOV3ip1 ovarian cancer cells using an siRNA targeted against STAT3 and followed by treatment with docetaxel (4 nM). 48 hours after docetaxel treatment, the extent of cell death secondary to apoptosis was analyzed after Annexin-V PE/7AAD staining with flow cytometry.
# [5] = test system: tumor associated angiogenesis; experiment: CD31 staining, microvessel density (MVD) of tumor samples; details: compared with control siRNA/rHDL treatment
# Protocol: Paraffin sections for CD31 (1:800 dilution, Pharmingen), were stained at 4° C. […] To quantify MVD, five random 0.159 mm2 fields at 100× magnification for each tumor were examined, and microvessels within those fields were counted (Thaker et al., 2005).
# In order to ascertain the effects of STAT3 silencing on tumor associated angiogenesis, CD 31 staining on fresh frozen tumor samples from all four treatment groups (FIG. 7) was determined along with microvessel density (MVD).
# [6] = test system: SKOV3ip1 ovarian cancer cells; experiment: MTT assay, docetaxel after STAT3 siRNA transfection; format: cell-based; details: SKOV3ip1 cells transfected with STAT3 siRNA, docetaxel in escalating doses, compared to docetaxel treatment
# Protocol: Small interfering RNA (siRNA). Specific siRNAs targeted against Stat3—7 (target sequence 5′-[…]-3′; SEQ ID NO:1), FAK (target Sequence 5′-[…]-3′; SEQ ID NO:2) and control siRNA targeted against (target sequence:5′-[…]-3′; SEQ ID NO:3) were purchased from Sigma-Aldrich Corporation, (Woodland, Tex.). These were incorporated into r-HDL nanoparticles, as previously described (Mooberry et al., 2009). 5 ug of r-HDL incorporated siRNA was injected intraperitoneally twice weekly. For in vitro studies, mRNA-specific or nonspecific (control) siRNA was incorporated into Qiagen RNAiFect transfection agent (1 ug of siRNA to 3 uL of RNAiFect). Only 70% to 80% confluent SKOV3ip1 cells were utilized. Cells were first transfected with STAT3 siRNA. Twenty-four hours after transfection, media was changed to standard siRNA-free media and cells were treated with docetaxel (see below for details).
# MTT assay. SKOV3 cell (1.5×105) cells were plated in each well, using 6 well plates. Cells were then transfected with control or STAT3 siRNA overnight. […] Forty-eight hours after docetaxel treatment, the number of viable cells was determined by adding 50 μL of 0.15% 3-(4,5-dimethylthiazol-2-yl)-2,5-diphenyl tetrazolium bromide (MTT; Sigma) to each well. […] Viable cells were quantified by measuring the absorbance at 570 nm using a uQuant plate reader (Bio-Tek, Winooski, Vt.). […]
# Ovarian Tumor Cells = experiment: Gene expression profile after STAT3 knockdown (Illumina microarray / quantitative RT-PCR); format: cell-based
# Protocol: Effect of STAT3 Silencing on Gene Expression profile of Ovarian Tumor Cells. STAT3 knockdown using siRNA targeted against STAT3, microarray analysis using Illumina platform was performed There were 460 genes that were identified to have differential expression levels between the control and STAT3 targeted group. Data was then analyzed using ingenuity-pathway assistance and 32 genes that were involved in cell survival and apoptosis were chosen (Table 1).
# HCT116 = HCT116 model, compared to controls
# [7] = STAT3 targeting study, compared to the control group
molecule,measurement,setting,value
CC(=O)O[C@@]12CO[C@@H]1C[C@H](O)[C@@]1(C)C(=O)[C@H](O)C3=C(C)[C@@H](OC(=O)[C@H](O)[C@@H](NC(=O)OC(C)(C)C)c4ccccc4)C[C@@](O)([C@@H](OC(=O)c4ccccc4)[C@H]21)C3(C)C [docetaxel],reduction in tumor growth,HeyA8; FAK targeting study,74%
same,reduction in tumor growth,HeyA8; [7],62%
same,reduction in tumor metastasis,HeyA8; [7],77%
same,reduction in tumor growth,SKOV3ip1 [1],78%
same,reduction in tumor growth,HeyA8MDR,17%
same,reduction in tumor cell proliferation (Ki-67),SKOV3ip1 [2],30%
same,increase in tumor cell apoptosis (TUNEL),SKOV3ip1 [3],12 fold
same,increase in apoptosis compared to control,[4],5.2 fold
same,"reduction in MVD (tumor associated vessel counts, CD31)",[5],66%
"STAT3 siRNA: siRNA against Stat3 (SEQ ID NO:1), transfected in vitro with Qiagen RNAiFect transfection agent (GCCUCUCUGCAGAAUUCAA; listed as RNA, chemistry not given here)",effect of STAT3 silencing on IC 50 values of docetaxel,[6],lowered the IC 50 values of docetaxel significantly
same,increase in apoptosis compared to control,[4],3 fold
same,Fold Change,"Ovarian Tumor Cells; gene ALOX5, Stat3 silencing vs control",1.43 fold
same,Fold Change,"Ovarian Tumor Cells; gene ATF6, Stat3 silencing vs control",0.44 fold
same,Fold Change,"Ovarian Tumor Cells; gene BAX, Stat3 silencing vs control",1.49 fold
same,Fold Change,"Ovarian Tumor Cells; gene BCL6, Stat3 silencing vs control",0.72 fold
same,Fold Change,"Ovarian Tumor Cells; gene BEX2, Stat3 silencing vs control",1.46 fold
same,Fold Change,"Ovarian Tumor Cells; gene CAV1, Stat3 silencing vs control",0.75 fold
same,Fold Change,"Ovarian Tumor Cells; gene CD24, Stat3 silencing vs control",0.73 fold
same,Fold Change,"Ovarian Tumor Cells; gene CDCP1, Stat3 silencing vs control",0.73 fold
same,Fold Change,"Ovarian Tumor Cells; gene CTGF, Stat3 silencing vs control",0.62 fold
same,Fold Change,"Ovarian Tumor Cells; gene CYR61, Stat3 silencing vs control",0.68 fold
same,Fold Change,"Ovarian Tumor Cells; gene DKK1, Stat3 silencing vs control",0.72 fold
same,Fold Change,"Ovarian Tumor Cells; gene DUSP1, Stat3 silencing vs control",0.74 fold
same,Fold Change,"Ovarian Tumor Cells; gene ETS2, Stat3 silencing vs control",0.56 fold
same,Fold Change,"Ovarian Tumor Cells; gene FGF2, Stat3 silencing vs control",0.68 fold
same,Fold Change,"Ovarian Tumor Cells; gene FOS, Stat3 silencing vs control",0.72 fold
same,Fold Change,"Ovarian Tumor Cells; gene HM OX1, Stat3 silencing vs control",1.79 fold
same,Fold Change,"Ovarian Tumor Cells; gene IGFBP3, Stat3 silencing vs control",0.45 fold
same,Fold Change,"Ovarian Tumor Cells; gene IL-1B, Stat3 silencing vs control",0.55 fold
same,Fold Change,"Ovarian Tumor Cells; gene IL-6, Stat3 silencing vs control",0.61 fold
same,Fold Change,"Ovarian Tumor Cells; gene KITLG, Stat3 silencing vs control",0.66 fold
same,Fold Change,"Ovarian Tumor Cells; gene NFKBIZ, Stat3 silencing vs control",0.65 fold
same,Fold Change,"Ovarian Tumor Cells; gene NQO1, Stat3 silencing vs control",0.55 fold
same,Fold Change,"Ovarian Tumor Cells; gene NRP1, Stat3 silencing vs control",0.67 fold
same,Fold Change,"Ovarian Tumor Cells; gene PLAUR, Stat3 silencing vs control",0.72 fold
same,Fold Change,"Ovarian Tumor Cells; gene PMAIP1, Stat3 silencing vs control",0.69 fold
same,Fold Change,"Ovarian Tumor Cells; gene PMEPA1, Stat3 silencing vs control",0.71 fold
same,Fold Change,"Ovarian Tumor Cells; gene PRKRA, Stat3 silencing vs control",0.68 fold
same,Fold Change,"Ovarian Tumor Cells; gene RASA1, Stat3 silencing vs control",0.68 fold
same,Fold Change,"Ovarian Tumor Cells; gene RTN1, Stat3 silencing vs control",1.37 fold
same,Fold Change,"Ovarian Tumor Cells; gene SFRP1, Stat3 silencing vs control",0.55 fold
same,Fold Change,"Ovarian Tumor Cells; gene SGK1, Stat3 silencing vs control",0.68 fold
same,Fold Change,"Ovarian Tumor Cells; gene SPARC, Stat3 silencing vs control",0.7 fold
same,Fold Change,"Ovarian Tumor Cells; gene SPP1, Stat3 silencing vs control",0.77 fold
same,Fold Change,"Ovarian Tumor Cells; gene STAT3, Stat3 silencing vs control",0.23 fold
same,Fold Change,"Ovarian Tumor Cells; gene TCF3, Stat3 silencing vs control",0.71 fold
same,Fold Change,"Ovarian Tumor Cells; gene TNFRSF11B, Stat3 silencing vs control",0.61 fold
same,Fold Change,"Ovarian Tumor Cells; gene TNFSF10, Stat3 silencing vs control",0.7 fold
same,Fold Change,"Ovarian Tumor Cells; gene XBP1, Stat3 silencing vs control",0.74 fold
O=C1[O][Pt]2([NH][C@@H]3CCCC[C@H]3[NH]2)[O]C1=O [oxaliplatin],reduction in tumor growth,HCT116,55%
